SMILES strings stand for the structures. Where a name gives a salt, the structure may show the parent alone. Where only a bound is given, the exact number is not on record here.

The first test addresses LSD1 (Homo sapiens, UniProt O60341). Nature of the test: Biochemical assay for LSD1 activity (LSD1 demethylase TR-FRET). Particulars: Table 5; biotinylated H3K4me1 peptide, 50 minutes at room temperature, TR-FRET; read-out: LSD1_Pep_TR-FRET_1.0 (IC50 T50). In general terms: Time-resolved FRET reads energy transfer from a long-lived donor to a nearby acceptor.
With `O=C(O)CN1CCC(CNC2CC2/C=C/c2ccccc2)CC1` (stereo not drawn) [Compound 111, (E)-3-(4-(((2-styrylcyclopropyl)amino)methyl)piperidin-1-yl)acetic acid], the IC50 (commonly the concentration at which inhibition is half-maximal) is less than 100 nM.

The same test, now with this note: Table 6; biotinylated H3K4me1 peptide, 50 minutes at room temperature, TR-FRET; read-out: LSD1_Pep_TR-FRET_1.0 (IC50 T50).
As for `CC(C)/C(=C\c1ccccc1)[C@@H]1C[C@H]1NC1CCNCC1` (racemic) [Compound 277, N-((trans)-2-((E)-3-methyl-1-phenylbut-1-en-2-yl)cyclopropyl)piperidin-4-amine Dihydrochloride], the IC50 is less than 100 nM.

As to `COCCNC1CCC(N[C@@H]2C[C@H]2/C(C)=C/c2ccccc2)CC1` (single isomer, unassigned) [Compound 143, (trans)-N1-(2-methoxyethyl)-N4-((trans)-2-((E)-1-phenylprop-1-en-2-yl)cyclopropyl)cyclohexane-1,4-diamine bis(trifluoroacetic acid salt)], the IC50 is less than 100 nM.

As for `CC/C(=C\c1ccccc1)[C@@H]1C[C@H]1N[C@H]1CC[C@H](N(C)CCC(=O)O)CC1` (racemic) [Compound 212, 3-(methyl((trans)-4-(((trans)-2-((E)-1-phenylbut-1-en-2-yl)cyclopropyl)amino)cyclohexyl)amino)propanoic Acid Dihydrochloride], the IC50 is less than 100 nM.

With `CC/C(=C\c1ccccc1)[C@@H]1C[C@H]1NC1CCN(Cc2ccc(C(=O)O)cc2)CC1` (racemic) [Compound 128, 4-((4-(((trans)-2-((E)-1-phenylbut-1-en-2-yl)cyclopropyl)amino)piperidin-1-yl)methyl)benzoic acid bis-trifluoroacetic acid salt], the IC50 is less than 100 nM.

As for `C/C(=C\c1ccccc1)[C@@H]1C[C@H]1N[C@H]1CC[C@H](N(C)C)CC1` (single isomer, unassigned) [Compound 138, (trans)-N^1,N^1-dimethyl-N^4-((trans)-2-((E)-1-phenylprop-1-en-2-yl)cyclopropyl)cyclohexane-1,4-diamine], the IC50 is less than 100 nM.

`COCCN[C@H]1CC[C@@H](N[C@@H]2C[C@H]2/C(C)=C/c2ccccc2)CC1` (single isomer, unassigned) [Compound 144, (cis)-N1-(2-methoxyethyl)-N4-((trans)-2-((E)-1-phenylprop-1-en-2-yl)cyclopropyl)cyclohexane-1,4-diamine bis(trifluoroacetic acid) salt]: the IC50 is less than 100 nM.

In the case of `CC/C(=C\c1ccccc1)[C@@H]1C[C@H]1N[C@H]1CC[C@H](NCCO)CC1` (single isomer, unassigned) [Compound 159, 2-(((trans)-4-(((trans)-2-((E)-1-phenylbut-1-en-2-yl)cyclopropyl)amino)cyclohexyl)amino)ethan-1-ol bis(trifluoroacetic acid salt)], the IC50 is less than 100 nM.

`CC/C(=C\c1ccccc1)[C@@H]1C[C@H]1N[C@H]1CC[C@H](NCCOCC(=O)O)CC1` (single isomer, unassigned) [Compound 162, 2-(2-(((trans)-4-(((trans)-2-((E)-1-phenylbut-1-en-2-yl)cyclopropyl)amino)cyclohexyl)amino)ethoxy)acetic acidbis(trifluoroacetic acid salt)]: the IC50 was less than 100 nM.

For `CC/C(=C\c1ccccc1)[C@@H]1C[C@H]1N[C@H]1CC[C@H](NCC2(CO)COC2)CC1` (single isomer, unassigned) [Compound 161, (3-((((trans)-4-(((trans)-2-((E)-1-phenylbut-1-en-2-yl)cyclopropyl)amino)cyclohexyl)amino)methyl)oxetan-3-yl)methanolbis(trifluoroacetic acid salt)], the IC50 was less than 100 nM.

Consider `C/C(=C\c1ccccc1)[C@@H]1C[C@H]1NC1CCN(CCNS(C)(=O)=O)CC1` (racemic) [Compound 205, N-(2-(4-(((trans)-2-(E)-1-phenylprop-1-en-2-yl)cyclopropyl)amino)piperidin-1-yl)ethyl)methanesulfonamide Dihydrochloride], for which the IC50 is less than 100 nM.

Turning to `CNC(=O)c1ccc(CN2CCC(N[C@@H]3C[C@H]3/C(C)=C/c3ccccc3)CC2)cc1` (racemic) [Compound 136, N-methyl-4-((4-(((trans)-2-((E)-1-phenylprop-1-en-2-yl)cyclopropyl)amino)piperidin-1-yl)methyl)benzamide dihydrochloride], the IC50 is less than 100 nM.

For the compound `C/C(=C\c1ccccc1)[C@@H]1C[C@H]1N[C@H]1CC[C@H](NCc2ccc(C(=O)O)cc2)CC1` (single isomer, unassigned) [Compound 150, 4-((((trans)-4-(((trans)-2-((E)-1-phenylprop-1-en-2-yl)cyclopropyl)amino)cyclohexyl)amino)methyl)benzoic acid bis(trifluoroacetic acid) salt], the IC50 is less than 100 nM.

Take `C/C(=C\c1ccccc1)[C@@H]1C[C@H]1N[C@H]1CC[C@H](NCC(C)(C)C(=O)O)CC1` (single isomer, unassigned) [Compound 148, 2,2-dimethyl-3-(((trans)-4-(((trans)-2-((E)-1-phenylprop-1-en-2-yl)cyclopropyl)amino)cyclohexyl)amino)propanoic acid bis(trifluoroacetic acid) salt]: the IC50 was less than 100 nM.

Turning to `C/C(=C\c1ccccc1)[C@@H]1C[C@H]1N[C@H]1CC[C@@H](NCCC#N)CC1` (single isomer, unassigned) [Compound 156, 3-(((cis)-4-(((trans)-2-((E)-1-phenylprop-1-en-2-yl)cyclopropyl)amino)cyclohexyl)amino)propanenitrile bis(trifluoroacetic acid) salt], the IC50 was less than 100 nM.

For the compound `C/C(=C\c1ccccc1)[C@@H]1C[C@H]1NC1CCN(Cc2ccc[nH]c2=O)CC1` (racemic) [Compound 134, 3-((4-(((trans)-2-((E)-1-phenylprop-1-en-2-yl)cyclopropyl)amino)piperidin-1-yl)methyl)pyridin-2(1H)-one bis(2,2,2-trifluoroacetate)], the IC50 is less than 100 nM.

`C/C(=C\c1ccccc1)[C@@H]1C[C@H]1NC1CCN(Cc2ccc(C(=O)O)cn2)CC1` (racemic) [Compound 203, 6-((4-(((trans)-2-((E)-1-phenylprop-1-en-2-yl)cyclopropyl)amino)piperidin-1-yl)methyl)nicotinic Acid Dihydrochloride]: the IC50 was less than 100 nM.

Take `C/C(=C\c1ccccc1)[C@@H]1C[C@H]1NC1CCN(CCC(=O)O)CC1` (racemic) [Compound 199, 3-(4-(((trans)-2-((E)-1-phenylprop-1-en-2-yl)cyclopropyl)amino)piperidin-1-yl)propanoic Acid Dihydrochloride]: the IC50 was less than 100 nM.

`CC/C(=C\c1ccccc1)[C@@H]1C[C@H]1N[C@H]1CC[C@@H](NCC(=O)O)CC1` (racemic) [Compound 183, 2-(((cis)-4-(((trans)-2-((E)-1-phenylbut-1-en-2-yl)cyclopropyl)amino)cyclohexyl)amino)acetic Acid]: the IC50 is less than 100 nM.

Consider `CC/C(=C\c1ccccc1)[C@@H]1C[C@H]1N[C@H]1CC[C@H](NCc2ccc(C(=O)O)cc2)CC1` (racemic) [Compound 218, 4-((((trans)-4-(((trans)-2-((E)-1-phenylbut-1-en-2-yl)cyclopropyl)amino)cyclohexyl)amino)methyl)benzoic Acid Dihydrochloride], for which the IC50 is less than 100 nM.

On to `C/C(=C\c1ccccc1)[C@@H]1C[C@H]1N[C@H]1CC[C@H](NCCC(=O)N2CCCC2)CC1` (single isomer, unassigned) [Compound 146, 3-(((trans)-4-(((trans)-2-((E)-1-phenylprop-1-en-2-yl)cyclopropyl)amino)cyclohexyl)amino)-1-(pyrrolidin-1-yl)propan-1-one bis(trifluoroacetic acid) salt], for which the IC50 is less than 100 nM.

For the compound `C/C(=C\c1ccccc1)[C@@H]1C[C@H]1NC1CCN(CC(=O)O)CC1` (racemic) [Compound 194, 2-(4-(((trans)-2-((E)-1-phenylprop-1-en-2-yl)cyclopropyl)amino)piperidin-1-yl)acetic Acid Dihydrochloride], the IC50 was less than 100 nM.

On to `CC(C)/C(=C\c1ccccc1)[C@H]1C[C@@H]1N[C@H]1CC[C@H](N)CC1` (racemic) [Compound 178, (trans)-N^1-((trans)-2-(E)-3-methyl-1-phenylbut-1-en-2-yl)cyclopropyl)cyclohexane-1,4-diamine Dihydrochloride], for which the IC50 was less than 100 nM.

Staying with this test, now noted: Table 7; biotinylated H3K4me1 peptide, 50 minutes at room temperature, TR-FRET; read-out: LSD1_Pep_TR-FRET_1.0 (IC50 T50).
Turning to `CC/C(=C\c1ccccc1)[C@@H]1C[C@H]1NC1CC2(C1)CN(CC(N)=O)C2` (single isomer, unassigned) [Compound 268, 2-(6-(((1R,2S or 1S,2R)-2-(E)-1-phenylbut-1-en-2-yl)cyclopropyl)amino)-2-azaspiro[3.3]heptan-2-yl)acetamide Bis Trifluoroacetate (Single Stereoisomer)], the IC50 is less than 100 nM.

For the compound `CC/C(=C\c1ccccc1)[C@@H]1C[C@H]1NC1CC2(C1)CN(Cc1cnc(C(=O)O)cn1)C2` (single isomer, unassigned) [Compound 256], the IC50 is less than 100 nM.

Consider `CC/C(=C\c1ccccc1)[C@@H]1C[C@H]1NC1CC2(C1)CN(Cc1ccc(C(=O)O)c(C)c1)C2` (single isomer, unassigned) [Compound 255], for which the IC50 is less than 100 nM.

Take `CC/C(=C\c1ccccc1)[C@@H]1C[C@H]1NC[C@H]1CC[C@H](NCC(C)(C)C(=O)O)CC1` (racemic) [Compound 232]: the IC50 was in the range of 100 to 1000 nM.

Regarding `CC/C(=C\c1ccccc1)[C@@H]1C[C@H]1NC1CC2(C1)CN(CCC(=O)O)C2` (racemic) [Compound 230], the IC50 is less than 100 nM.

For the compound `CC/C(=C\c1ccccc1)[C@@H]1C[C@H]1NCCC1CN(Cc2ccc(C(=O)O)cc2)C1` (racemic) [Compound 241], the IC50 is less than 100 nM.

With `CC/C(=C\c1ccccc1)[C@@H]1C[C@H]1NCc1cnn(C2CNC2)c1` (racemic) [Compound 242], the IC50 is less than 100 nM.
